Laboratory results as given in the supplement of paper PMC10307832.

Experiments:
Experiment in all cases: relative viability (nuclei count vs DMSO), 5 days (fraction); higher = more cells survive
Bleomycin + Bortezomib = compound: CC1=C(N=C(N=C1N)[C@H](CC(=O)N)NC[C@@H](C(=O)N)N)C(=O)N[C@@H]([C@H](C2=CN=CN2)OC3C(C(C(C(O3)CO)O)O)OC4C(C(C(C(O4)CO)O)OC(=O)N)O)C(=O)N[C@H](C)[C@H]([C@H](C)C(=O)N[C@@H]([C@@H](C)O)C(=O)NCCC5=NC(=CS5)C6=NC(=CS6)C(=O)NCCC[S+](C)C)O [Bleomycin] + CC(C)C[C@H](NC(=O)[C@H](Cc1ccccc1)NC(=O)c1cnccn1)B(O)O [Bortezomib] (partner 0.002 µM); details: main component drawn
Method in brief: (§1)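 Lung cancer cell lines were seeded in 1536-well plates and dosed by pin tool the next day, with either a single drug or a fixed anchor-drug dose combined with five library-drug doses (not always all listed) spaced in √10 steps. Five days later, one step fixed the cells and stained their nuclei (final 0.05% Triton X-100, 1% formaldehyde, 1 ug/ml Hoechst), and nuclei were counted on 4× images. Relative viability is the nuclei count in treated wells divided by the count in vehicle wells, and each value is the median of duplicate plates.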

Bleomycin + Dasatinib = compound: CC1=C(N=C(N=C1N)[C@H](CC(=O)N)NC[C@@H](C(=O)N)N)C(=O)N[C@@H]([C@H](C2=CN=CN2)OC3C(C(C(C(O3)CO)O)O)OC4C(C(C(C(O4)CO)O)OC(=O)N)O)C(=O)N[C@H](C)[C@H]([C@H](C)C(=O)N[C@@H]([C@@H](C)O)C(=O)NCCC5=NC(=CS5)C6=NC(=CS6)C(=O)NCCC[S+](C)C)O [Bleomycin] + Cc1nc(Nc2ncc(C(=O)Nc3c(C)cccc3Cl)s2)cc(N2CCN(CCO)CC2)n1 [Dasatinib] (partner 0.075 µM); details: main component drawn
Method in brief: as §1

Etoposide + Trametinib = compound: COc1cc([C@@H]2c3cc4c(cc3[C@@H](O[C@@H]3O[C@@H]5CO[C@@H](C)O[C@H]5[C@H](O)[C@H]3O)[C@H]3COC(=O)[C@H]23)OCO4)cc(OC)c1O [Etoposide] + CC(=O)Nc1cccc(-n2c(=O)n(C3CC3)c(=O)c3c(Nc4ccc(I)cc4F)n(C)c(=O)c(C)c32)c1 [Trametinib] (partner 0.02 µM)
Method in brief: as §1

Etoposide + Foretinib = compound: COc1cc([C@@H]2c3cc4c(cc3[C@@H](O[C@@H]3O[C@@H]5CO[C@@H](C)O[C@H]5[C@H](O)[C@H]3O)[C@H]3COC(=O)[C@H]23)OCO4)cc(OC)c1O [Etoposide] + COc1cc2c(Oc3ccc(NC(=O)C4(C(=O)Nc5ccc(F)cc5)CC4)cc3F)ccnc2cc1OCCCN1CCOCC1 [Foretinib] (partner 0.25 µM)
Method in brief: as §1

Cell Line | relative viability (Bleomycin + Bortezomib; first compound 0.01 µM) | relative viability (Bleomycin + Bortezomib; first compound 0.03162 µM) | relative viability (Bleomycin + Bortezomib; first compound 0.1 µM) | relative viability (Bleomycin + Bortezomib; first compound 0.3162 µM) | relative viability (Bleomycin + Bortezomib; first compound 1 µM) | relative viability (Bleomycin + Dasatinib; first compound 0.01 µM) | relative viability (Bleomycin + Dasatinib; first compound 0.03162 µM) | relative viability (Bleomycin + Dasatinib; first compound 0.1 µM) | relative viability (Bleomycin + Dasatinib; first compound 0.3162 µM) | relative viability (Bleomycin + Dasatinib; first compound 1 µM) | relative viability (Etoposide + Trametinib; first compound 0.01 µM) | relative viability (Etoposide + Trametinib; first compound 0.03162 µM) | relative viability (Etoposide + Trametinib; first compound 0.1 µM) | relative viability (Etoposide + Trametinib; first compound 0.3162 µM) | relative viability (Etoposide + Trametinib; first compound 1 µM) | relative viability (Etoposide + Foretinib; first compound 0.01 µM) | relative viability (Etoposide + Foretinib; first compound 0.03162 µM) | relative viability (Etoposide + Foretinib; first compound 0.1 µM) | relative viability (Etoposide + Foretinib; first compound 0.3162 µM) | relative viability (Etoposide + Foretinib; first compound 1 µM)
HARA | 1 | 1.09 | 1.04 | 0.514 | 0.239 | 0.297 | 0.322 | 0.251 | 0.186 | 0.104 | 0.628 | 0.638 | 1.01 | 0.592 | 0.353 | 0.703 | 0.9 | 0.291 | 0.534 | 0.187
PC-14 | 0.541 | 0.253 | 0.155 | 0.0725 | 0.0825 | 0.176 | 0.126 | 0.0817 | 0.0123 | 0.0118 | 0.715 | 0.678 | 0.798 | 0.491 | 0.229 | 0.953 | 0.922 | 0.995 | 0.934 | 0.832
NCI-H1755 | 0.854 | 0.957 | 0.827 | 0.384 | 0.659 | 0.409 | 0.433 | 0.407 | 0.454 | 0.29 | 0.751 | 0.787 | 0.692 | 0.723 | 0.546 | 0.958 | 0.974 | 0.919 | 0.883 | 0.869
HCC-78 | 0.426 | 0.372 | 0.458 | 0.29 | 0.31 | 0.326 | 0.548 | 0.366 | 0.287 | 0.285 | 0.585 | 0.759 | 0.648 | 0.403 | 0.299 | 0.476 | 0.532 | 0.438 | 0.404 | 0.252
IA-LM | 0.493 | 0.746 | 0.676 | 0.339 | 0.269 | – | – | – | – | – | – | – | – | – | – | 1.06 | 1.09 | 0.865 | 0.975 | 0.494
NCI-H441 | – | 0.886 | 0.458 | 0.226 | 0.211 | 0.424 | 0.709 | 0.515 | 0.296 | 0.311 | 0.481 | 0.455 | 0.394 | 0.26 | 0.141 | 0.923 | 0.838 | 0.673 | 0.363 | 0.286
NCI-H1793 | – | – | – | – | – | 0.382 | 0.427 | 0.329 | 0.17 | 0.115 | – | 0.484 | 0.357 | 0.352 | 0.293 | 0.491 | 0.644 | – | 0.503 | 0.248
NCI-H1792 | 0.871 | 0.958 | 0.663 | 0.323 | 0.283 | 0.698 | 0.805 | 1.01 | 0.439 | 0.283 | 0.47 | 0.5 | – | 0.371 | 0.335 | – | – | – | – | –
NCI-H522 | – | – | – | – | – | 0.791 | 0.716 | 0.518 | 0.43 | 0.328 | 0.756 | 0.875 | 0.744 | 0.703 | 0.649 | – | – | – | – | –
NCI-H1299 | 0.963 | 0.994 | 0.95 | 0.435 | 0.412 | – | – | – | – | – | – | – | – | – | – | 1.07 | 1.11 | 1.11 | 0.997 | 0.811
NCI-H1648 | – | – | – | – | – | – | – | – | – | – | – | 0.552 | 0.362 | 0.523 | 0.416 | – | – | – | – | –
SK-MES-1 | – | – | – | – | – | 0.329 | 0.316 | 0.232 | 0.0893 | 0.0963 | 0.5 | 0.518 | 0.594 | 0.46 | 0.277 | 0.856 | 1.13 | 0.719 | 0.704 | 0.433
NCI-H2342 | – | – | – | – | – | 0.311 | 0.335 | 0.339 | 0.274 | 0.277 | 0.777 | 0.881 | 0.505 | 0.355 | 0.344 | 0.878 | 1.02 | 0.493 | 0.359 | 0.298
SW 900 | – | – | – | – | – | 0.48 | 0.418 | 0.241 | 0.147 | 0.134 | 0.741 | 0.653 | 0.649 | 0.354 | 0.25 | 0.806 | 0.87 | 0.725 | 0.596 | 0.278
LK-2 | – | – | – | – | – | 0.209 | 0.193 | 0.248 | 0.176 | 0.169 | 0.688 | 0.861 | 0.498 | 0.438 | 0.2 | 0.879 | 1.17 | 0.933 | 0.912 | 0.401
NCI-H1395 | – | – | – | – | – | 0.377 | 0.413 | 0.379 | 0.412 | 0.381 | 0.962 | 1.15 | 0.839 | 1.01 | 0.808 | 1 | 0.978 | 0.868 | 0.885 | 0.606
A549 | – | – | – | – | – | – | – | – | – | – | – | – | – | – | – | 0.773 | 1.01 | 0.753 | 0.236 | 0.068
NCI-H2170 | – | – | – | – | – | 0.504 | 0.599 | 0.638 | 0.285 | 0.389 | 0.843 | 1.03 | – | 0.877 | 0.723 | 0.988 | 1.02 | 0.917 | 0.906 | 0.765
NCI-H1563 | 0.755 | 0.767 | 0.689 | 0.536 | 0.531 | 0.439 | 0.452 | 0.438 | 0.401 | 0.47 | – | – | – | – | – | 0.758 | 0.93 | 0.785 | 0.609 | 0.604
ABC-1 | 0.325 | 0.311 | 0.275 | 0.195 | 0.242 | 0.516 | 0.53 | 0.61 | 0.31 | 0.285 | – | – | – | – | – | 1.06 | 0.951 | 0.65 | 0.5 | 0.271
